Test results: paper PMC9030254, “Target Hopping from Protein Kinases to PXR: Identification of Small-Molecule Protein Kinase Inhibitors as Selective Modulators of Pregnane X Receptor from TüKIC Library” (Cells, 2022)

Tests used:
Assay in all cases: Kinase profiling
Format in all cases: biochemical
TNK1 = target: T1, TNK1 (Homo sapiens, UniProt Q13470)
T1 construct: purchased ProQinase (Freiburg, Germany)
T1 sequence (Q13470 1-666): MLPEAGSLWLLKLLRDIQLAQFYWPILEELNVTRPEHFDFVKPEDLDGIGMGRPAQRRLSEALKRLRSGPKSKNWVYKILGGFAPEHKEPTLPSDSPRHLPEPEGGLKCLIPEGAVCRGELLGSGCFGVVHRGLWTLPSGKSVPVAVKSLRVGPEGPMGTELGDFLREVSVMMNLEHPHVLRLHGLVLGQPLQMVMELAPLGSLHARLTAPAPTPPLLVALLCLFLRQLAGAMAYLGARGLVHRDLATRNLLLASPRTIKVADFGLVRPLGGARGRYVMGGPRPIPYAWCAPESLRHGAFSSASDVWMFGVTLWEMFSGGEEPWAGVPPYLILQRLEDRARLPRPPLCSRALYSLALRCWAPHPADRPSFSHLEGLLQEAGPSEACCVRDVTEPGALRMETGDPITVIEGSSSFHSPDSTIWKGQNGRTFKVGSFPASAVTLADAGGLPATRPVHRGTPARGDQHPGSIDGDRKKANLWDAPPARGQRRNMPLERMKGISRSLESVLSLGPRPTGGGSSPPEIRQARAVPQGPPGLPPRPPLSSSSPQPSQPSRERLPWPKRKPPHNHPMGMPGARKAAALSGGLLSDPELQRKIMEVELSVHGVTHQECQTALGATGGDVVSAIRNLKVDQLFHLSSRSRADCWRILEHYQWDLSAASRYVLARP
Experimental: (§1) The analysis was performed by ProQinase (Freiburg, Germany).

S6Kbeta = target: T2, S6Kbeta (Homo sapiens, UniProt Q9UBS0)
T2 construct: purchased ProQinase (Freiburg, Germany)
T2 sequence (Q9UBS0 whole entry): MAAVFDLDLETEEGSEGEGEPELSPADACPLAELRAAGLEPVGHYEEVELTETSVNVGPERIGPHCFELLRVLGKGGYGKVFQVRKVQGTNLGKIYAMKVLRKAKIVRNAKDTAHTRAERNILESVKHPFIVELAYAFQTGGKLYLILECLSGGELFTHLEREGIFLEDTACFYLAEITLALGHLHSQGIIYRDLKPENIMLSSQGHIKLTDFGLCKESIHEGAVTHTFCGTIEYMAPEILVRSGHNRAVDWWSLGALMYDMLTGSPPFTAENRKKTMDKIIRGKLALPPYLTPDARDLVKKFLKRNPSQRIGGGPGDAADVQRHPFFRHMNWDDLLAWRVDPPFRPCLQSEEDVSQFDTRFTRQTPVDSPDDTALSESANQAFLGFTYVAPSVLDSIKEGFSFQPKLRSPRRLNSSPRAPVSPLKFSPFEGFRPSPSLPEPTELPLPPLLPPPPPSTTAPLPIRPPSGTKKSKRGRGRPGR
Experimental: as §1

ZAK = target: T3, ZAK (Homo sapiens, UniProt Q9NYL2)
T3 construct: purchased ProQinase (Freiburg, Germany)
T3 sequence (Q9NYL2 whole entry): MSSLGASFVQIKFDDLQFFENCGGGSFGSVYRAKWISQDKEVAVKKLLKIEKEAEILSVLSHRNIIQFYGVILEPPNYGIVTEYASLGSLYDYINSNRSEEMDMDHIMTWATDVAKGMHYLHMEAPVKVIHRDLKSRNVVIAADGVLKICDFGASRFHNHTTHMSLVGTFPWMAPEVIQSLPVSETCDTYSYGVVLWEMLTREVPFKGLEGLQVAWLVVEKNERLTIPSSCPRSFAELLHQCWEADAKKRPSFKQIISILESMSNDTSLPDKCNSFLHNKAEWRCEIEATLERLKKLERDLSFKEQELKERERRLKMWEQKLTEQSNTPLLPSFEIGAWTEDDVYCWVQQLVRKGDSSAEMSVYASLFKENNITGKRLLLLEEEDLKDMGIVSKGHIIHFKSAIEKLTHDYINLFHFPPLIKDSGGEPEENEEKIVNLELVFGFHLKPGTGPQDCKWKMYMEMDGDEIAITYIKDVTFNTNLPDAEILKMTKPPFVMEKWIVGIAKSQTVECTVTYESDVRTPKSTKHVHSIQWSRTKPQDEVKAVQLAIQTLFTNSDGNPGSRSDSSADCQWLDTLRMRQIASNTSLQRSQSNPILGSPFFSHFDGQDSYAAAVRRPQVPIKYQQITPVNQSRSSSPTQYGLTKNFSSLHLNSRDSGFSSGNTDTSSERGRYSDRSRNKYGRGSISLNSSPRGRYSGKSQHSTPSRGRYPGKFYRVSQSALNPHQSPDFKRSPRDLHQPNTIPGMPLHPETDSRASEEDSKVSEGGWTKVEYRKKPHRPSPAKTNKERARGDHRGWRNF
Experimental: as §1

NEK9 = target: T4, NEK9 (Homo sapiens, UniProt Q8TD19)
T4 construct: purchased ProQinase (Freiburg, Germany)
T4 sequence (Q8TD19 1-979): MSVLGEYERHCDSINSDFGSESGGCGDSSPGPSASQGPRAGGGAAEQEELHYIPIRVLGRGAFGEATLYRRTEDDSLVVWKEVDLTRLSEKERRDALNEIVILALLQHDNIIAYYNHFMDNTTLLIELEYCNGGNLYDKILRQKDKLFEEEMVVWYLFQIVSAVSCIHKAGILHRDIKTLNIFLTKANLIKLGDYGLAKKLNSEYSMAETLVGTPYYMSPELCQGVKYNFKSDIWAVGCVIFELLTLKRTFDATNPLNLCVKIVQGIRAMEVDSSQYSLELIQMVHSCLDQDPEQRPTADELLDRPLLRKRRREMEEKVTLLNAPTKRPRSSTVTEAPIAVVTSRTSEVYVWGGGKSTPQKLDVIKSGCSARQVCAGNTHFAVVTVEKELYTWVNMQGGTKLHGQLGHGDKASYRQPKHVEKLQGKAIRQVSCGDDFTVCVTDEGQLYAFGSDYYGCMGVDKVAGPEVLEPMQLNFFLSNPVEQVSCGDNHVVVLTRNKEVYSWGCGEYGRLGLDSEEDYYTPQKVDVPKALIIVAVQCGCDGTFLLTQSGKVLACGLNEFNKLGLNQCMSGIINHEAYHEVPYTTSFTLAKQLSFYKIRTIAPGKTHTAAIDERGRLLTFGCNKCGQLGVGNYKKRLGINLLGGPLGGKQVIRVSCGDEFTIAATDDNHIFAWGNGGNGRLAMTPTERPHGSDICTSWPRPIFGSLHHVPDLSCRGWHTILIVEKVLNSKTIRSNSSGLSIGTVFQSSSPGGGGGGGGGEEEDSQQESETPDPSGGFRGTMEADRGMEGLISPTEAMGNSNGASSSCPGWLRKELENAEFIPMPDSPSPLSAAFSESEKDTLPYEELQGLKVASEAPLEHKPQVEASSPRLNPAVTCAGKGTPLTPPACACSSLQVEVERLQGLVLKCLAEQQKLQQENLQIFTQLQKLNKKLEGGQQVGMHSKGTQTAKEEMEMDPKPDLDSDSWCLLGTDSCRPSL
Experimental: as §1

JNK2 = target: T5, JNK2 (Homo sapiens, UniProt P45984)
T5 construct: purchased ProQinase (Freiburg, Germany)
T5 sequence (P45984 whole entry): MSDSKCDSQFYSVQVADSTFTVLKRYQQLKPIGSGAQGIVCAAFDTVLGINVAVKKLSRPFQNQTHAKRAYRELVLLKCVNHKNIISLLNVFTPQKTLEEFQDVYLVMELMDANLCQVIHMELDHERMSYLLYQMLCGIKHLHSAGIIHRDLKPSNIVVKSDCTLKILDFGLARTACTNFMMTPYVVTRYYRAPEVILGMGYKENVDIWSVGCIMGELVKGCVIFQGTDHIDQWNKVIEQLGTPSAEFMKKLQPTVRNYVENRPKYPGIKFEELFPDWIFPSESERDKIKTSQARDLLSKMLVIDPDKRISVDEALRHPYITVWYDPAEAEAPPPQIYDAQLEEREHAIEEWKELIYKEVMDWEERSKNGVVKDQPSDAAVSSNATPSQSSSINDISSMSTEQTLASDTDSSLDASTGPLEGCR
Experimental: as §1

ARK5 = target: T6, ARK5 (Homo sapiens, UniProt O60285)
T6 construct: purchased ProQinase (Freiburg, Germany)
T6 sequence (O60285 1-661): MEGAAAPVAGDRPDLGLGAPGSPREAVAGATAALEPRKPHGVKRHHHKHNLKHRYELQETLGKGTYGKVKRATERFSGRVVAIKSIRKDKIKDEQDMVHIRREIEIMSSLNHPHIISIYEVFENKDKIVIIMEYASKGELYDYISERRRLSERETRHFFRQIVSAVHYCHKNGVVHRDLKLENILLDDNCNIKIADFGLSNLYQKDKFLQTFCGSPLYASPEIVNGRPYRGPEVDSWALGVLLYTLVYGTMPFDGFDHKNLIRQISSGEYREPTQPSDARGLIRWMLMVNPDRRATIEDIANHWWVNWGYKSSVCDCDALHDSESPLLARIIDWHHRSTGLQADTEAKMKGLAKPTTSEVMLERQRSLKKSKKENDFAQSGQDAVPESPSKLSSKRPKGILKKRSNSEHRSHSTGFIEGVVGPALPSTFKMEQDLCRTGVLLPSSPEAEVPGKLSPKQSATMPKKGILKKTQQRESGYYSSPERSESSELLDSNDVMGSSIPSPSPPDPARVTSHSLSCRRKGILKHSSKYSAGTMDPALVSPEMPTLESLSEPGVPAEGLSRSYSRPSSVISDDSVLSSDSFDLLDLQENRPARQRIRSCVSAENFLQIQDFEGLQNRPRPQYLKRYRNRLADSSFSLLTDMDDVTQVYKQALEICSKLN
Experimental: as §1

FYN = target: T7, FYN (Homo sapiens, UniProt P06241)
T7 construct: purchased ProQinase (Freiburg, Germany)
T7 sequence (P06241 whole entry): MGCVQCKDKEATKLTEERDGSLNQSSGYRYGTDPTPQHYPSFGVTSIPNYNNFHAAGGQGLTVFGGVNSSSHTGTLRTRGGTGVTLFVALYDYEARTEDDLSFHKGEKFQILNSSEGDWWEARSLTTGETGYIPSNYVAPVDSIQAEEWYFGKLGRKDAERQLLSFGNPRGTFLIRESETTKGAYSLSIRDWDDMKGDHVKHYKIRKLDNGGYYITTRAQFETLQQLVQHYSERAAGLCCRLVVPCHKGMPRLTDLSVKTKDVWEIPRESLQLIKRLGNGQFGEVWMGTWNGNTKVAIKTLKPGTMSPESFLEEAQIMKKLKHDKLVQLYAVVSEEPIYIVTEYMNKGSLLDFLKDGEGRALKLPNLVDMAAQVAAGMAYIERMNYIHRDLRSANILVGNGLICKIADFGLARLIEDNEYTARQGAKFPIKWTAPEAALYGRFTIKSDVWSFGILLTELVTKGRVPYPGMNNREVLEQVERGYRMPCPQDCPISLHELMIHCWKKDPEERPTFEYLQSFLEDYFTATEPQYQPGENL
Experimental: as §1

Structure (SMILES) | Residual activity (TNK1; 1.0E-05 M) | Residual activity (TNK1; 1.0E-06 M) | Residual activity (S6Kbeta; 1.0E-05 M) | Residual activity (S6Kbeta; 1.0E-06 M) | Residual activity (ZAK; 1.0E-05 M) | Residual activity (ZAK; 1.0E-06 M) | Residual activity (NEK9; 1.0E-05 M) | Residual activity (NEK9; 1.0E-06 M) | Residual activity (JNK2; 1.0E-05 M) | Residual activity (JNK2; 1.0E-06 M) | Residual activity (ARK5; 1.0E-05 M) | Residual activity (ARK5; 1.0E-06 M) | Residual activity (FYN; 1.0E-05 M) | Residual activity (FYN; 1.0E-06 M)
O=C(Cc1ccccc1)Nc1ccc(F)c(Nc2ccc3c(c2)CCCCC3=O)c1 [Compound 100] | 72 % of control | 101 % of control | 85 % of control | 96 % of control | 102 % of control | 109 % of control | 93 % of control | 86 % of control | 79 % of control | 87 % of control | 91 % of control | 90 % of control | 55 % of control | 90 % of control
O=C(Nc1ccc(F)c(Nc2ccc3c(c2)CCCCC3=O)c1)c1cccc(F)c1 [Compound 109] | 85 % of control | 89 % of control | 96 % of control | 102 % of control | 106 % of control | 106 % of control | 81 % of control | 96 % of control | 97 % of control | 88 % of control | 88 % of control | 92 % of control | 83 % of control | 104 % of control
